According to patent publication US12365668B2, “Aminopyrazine diol compounds as PI3K-y inhibitors” (Incyte Corporation, priority 2018, dated 2025):
Read-outs that look alike come from different tables or passages of the source.

Assays:
[1] = target: PI3Kγ (p110γ) Recombinant Human Protein (Homo sapiens (Human), UniProt P48736); experiment: PI3K-γ Scintillation Proximity Assay; type: biochemical; details: 20 μM PIP2, 2 μM ATP, SPA
Text: Example B. PI3K-γ Scintillation Proximity Assay Materials: [γ-^33P]ATP (10 mCi/mL) and Wheat Germ Agglutinin (WGA) YSi SPA Scintillation Beads was purchased from Perkin Elmer (Waltham, MA). Lipid kinase substrate, D-myo-Phosphatidylinositol 4,5-bisphosphate (PtdIns(4,5)P2)D (+)-sn-1,2-di-O-octanoylglyceryl, 3-O-phospho linked (PIP2), CAS 204858-53-7, was purchased from Echelon Biosciences (Salt Lake City, UT). PI3Kγ (p110γ) Recombinant Human Protein was purchased from Life technology (Grand Island, NY). ATP, MgCl2, DTT, EDTA, MOPS and CHAPS were purchased from Sigma Aldrich (St. Louis, MO). The kinase reaction was conducted in polystyrene 384-well Greiner Bio-one white plate from Thermo Fisher Scientific in a final volume of 25 μL. Inhibitors were first diluted serially in DMSO and added to the plate wells before the addition of other reaction components. The final concentration of DMSO in the assay was 2%. The PI3Kγ assay was carried out at room temperature in 20 mM MOPS, pH 6.7, 10 mM MgCl2, 5 mM DTT and CHAPS 0.03%. Reactions were initiated by the addition of ATP, the final reaction mixture consisted of 20 μM PIP2, 2 μM ATP, 0.5 μCi [γ-^33P] ATP, 13 nM PI3Kγ. Reactions were incubated for 120 min and terminated by the addition of 40 μL SPA beads suspended in quench buffer: 163 mM potassium phosphate pH 7.8, 20% glycerol, 25 mM EDTA. The final concentration of SPA beads is 1.0 mg/mL. After the plate sealing, plates were shaken overnight at room temperature and centrifuged at 1500 rpm for 10 min, the radioactivity of the product was determined by scintillation counting on Topcount (Perkin-Elmer). IC50 determination was performed by fitting the curve of percent of the solvent control activity versus the log of the inhibitor concentration using the GraphPad Prism 6.0 software.

[2] = target: PI3Kδ (p110δ/p85α) Recombinant Human Protein (Homo sapiens (Human), UniProt O00329); experiment: PI3Kδ Scintillation Proximity Assay; type: biochemical; details: 20 μM PIP2, 2 μM ATP, SPA
Sequence of PI3Kδ (p110δ/p85α) Recombinant Human Protein (O00329 whole entry): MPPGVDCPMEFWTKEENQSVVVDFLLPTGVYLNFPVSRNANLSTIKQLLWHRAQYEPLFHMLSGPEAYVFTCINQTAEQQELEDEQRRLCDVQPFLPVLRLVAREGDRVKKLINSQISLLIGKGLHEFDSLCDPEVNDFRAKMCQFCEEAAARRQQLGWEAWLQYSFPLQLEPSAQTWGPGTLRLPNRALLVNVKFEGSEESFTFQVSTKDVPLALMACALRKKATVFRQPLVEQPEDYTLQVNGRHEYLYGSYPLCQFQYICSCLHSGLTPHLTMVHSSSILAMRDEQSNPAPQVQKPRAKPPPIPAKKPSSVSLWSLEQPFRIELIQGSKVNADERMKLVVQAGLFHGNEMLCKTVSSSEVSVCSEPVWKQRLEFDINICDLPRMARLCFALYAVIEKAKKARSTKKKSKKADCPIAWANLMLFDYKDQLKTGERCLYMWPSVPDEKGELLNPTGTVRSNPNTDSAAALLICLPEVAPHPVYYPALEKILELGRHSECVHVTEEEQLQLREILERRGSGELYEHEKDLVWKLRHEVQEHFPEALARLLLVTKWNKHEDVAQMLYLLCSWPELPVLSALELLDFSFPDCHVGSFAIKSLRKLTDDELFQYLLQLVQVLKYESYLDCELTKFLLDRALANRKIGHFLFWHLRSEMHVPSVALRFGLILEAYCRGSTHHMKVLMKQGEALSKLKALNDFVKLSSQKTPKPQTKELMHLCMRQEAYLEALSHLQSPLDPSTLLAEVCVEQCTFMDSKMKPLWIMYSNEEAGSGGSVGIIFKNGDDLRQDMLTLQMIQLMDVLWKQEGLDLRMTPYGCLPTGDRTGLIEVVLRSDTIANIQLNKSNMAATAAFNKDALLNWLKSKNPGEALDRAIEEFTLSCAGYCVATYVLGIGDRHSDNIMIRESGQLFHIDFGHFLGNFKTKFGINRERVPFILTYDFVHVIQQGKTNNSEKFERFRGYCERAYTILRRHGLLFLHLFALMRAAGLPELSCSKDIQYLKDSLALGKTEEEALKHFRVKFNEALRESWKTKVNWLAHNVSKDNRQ
Sequence of PI3Kδ (p110δ/p85α) Recombinant Human Protein (P27986 whole entry partner): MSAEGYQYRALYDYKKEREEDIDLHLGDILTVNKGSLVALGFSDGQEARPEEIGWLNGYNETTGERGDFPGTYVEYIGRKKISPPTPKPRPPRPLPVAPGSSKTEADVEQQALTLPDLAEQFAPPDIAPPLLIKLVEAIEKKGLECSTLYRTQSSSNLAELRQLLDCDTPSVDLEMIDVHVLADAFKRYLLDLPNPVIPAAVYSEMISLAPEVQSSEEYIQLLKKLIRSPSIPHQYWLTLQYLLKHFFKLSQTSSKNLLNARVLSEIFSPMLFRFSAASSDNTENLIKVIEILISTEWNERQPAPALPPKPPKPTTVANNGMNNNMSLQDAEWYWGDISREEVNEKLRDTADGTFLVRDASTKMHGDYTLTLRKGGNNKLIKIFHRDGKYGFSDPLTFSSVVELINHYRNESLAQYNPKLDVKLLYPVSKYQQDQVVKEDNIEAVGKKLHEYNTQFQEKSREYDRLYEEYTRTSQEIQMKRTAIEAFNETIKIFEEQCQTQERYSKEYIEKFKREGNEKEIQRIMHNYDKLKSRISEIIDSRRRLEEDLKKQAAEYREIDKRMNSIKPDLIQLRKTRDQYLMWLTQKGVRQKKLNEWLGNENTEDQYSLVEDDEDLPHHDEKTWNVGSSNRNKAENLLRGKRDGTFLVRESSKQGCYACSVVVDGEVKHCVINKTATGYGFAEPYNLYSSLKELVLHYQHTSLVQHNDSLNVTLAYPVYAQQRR
Text: Example C. PI3Kδ Scintillation Proximity Assay Materials: [γ-^33P]ATP (10 mCi/mL) and Wheat Germ Agglutinin (WGA) YSi SPA Scintillation Beads was purchased from Perkin Elmer (Waltham, MA). Lipid kinase substrate, D-myo-Phosphatidylinositol 4,5-bisphosphate (PtdIns(4,5)P2)D (+)-sn-1,2-di-O-octanoylglyceryl, 3-O-phospho linked (PIP2), CAS 204858-53-7, was purchased from Echelon Biosciences (Salt Lake City, UT). PI3Kδ (p110δ/p85α) Recombinant Human Protein was purchased from Eurofins (St Charles, MO). ATP, MgCl2, DTT, EDTA, MOPS and CHAPS were purchased from Sigma Aldrich (St. Louis, MO). The kinase reaction was conducted in polystyrene 384-well Greiner Bio-one white plate from Thermo Fisher Scientific in a final volume of 25 μL. Inhibitors were first diluted serially in DMSO and added to the plate wells before the addition of other reaction components. The final concentration of DMSO in the assay was 2%. The PI3Kδ assay was carried out at room temperature in 20 mM MOPS, pH 6.7, 10 mM MgCl2, 5 mM DTT and CHAPS 0.03%. Reactions were initiated by the addition of ATP, the final reaction mixture consisted of 20 μM PIP2, 2 μM ATP, 0.5 μCi [γ-^33P] ATP, 3.4 nM PI3Kδ. Reactions were incubated for 120 min and terminated by the addition of 40 μL SPA beads suspended in quench buffer: 163 mM potassium phosphate pH 7.8, 20% glycerol, 25 mM EDTA. The final concentration of SPA beads is 1.0 mg/mL. After the plate sealing, plates were shaken overnight at room temperature and centrifuged at 1500 rpm for 10 min, the radioactivity of the product was determined by scintillation counting on Topcount (PerkinElmer). IC50 determination was performed by fitting the curve of percent of the solvent control activity versus the log of the inhibitor concentration using the GraphPad Prism 6.0 software.

[3] = test system: Phosphorylated Ribosomal Protein S6 (RPS6) in THP-1 cells; experiment: THP-1 RPS6 ELISA Assay; type: cell-based, Human; details: serum starved, 2 hours compound, 10 nM MCP-1 for 15 minutes, Phospho-RPS6 ELISA, read-out: PI3Kγ_THP1_RPS6_ELISA IC50
Method: Example A. THP-1 RPS6 ELISA Assay
To measure the Phosphorylated Ribosomal Protein S6 (RPS6) in cell lysates, THP-1 cells (Human Acute Monocytic Leukemia) are purchased from ATCC (Manassas, VA) and maintained in RPMI with 10% FBS (Gibco/Life Technologies, Carlsbad, CA). For the assay, THP-1 cells are serum starved overnight in RPMI, then plated in RPMI (2×10^5 cells/well in 90 μL) into 96-well flat-bottom tissue culture treated plates (Corning, Corning, NY), in the presence or absence of a concentration range of test compounds. Covered plates are incubated for 2 hours at 37° C., 5% CO2 then treated with or without 10 nM MCP-1(MYBioSource, San Diego, CA) for 15 minutes at 37° C., 5% CO2. Plates are centrifuged at 1600 RPM and supernatants are removed. Cells are lysed in Lysis Buffer (Cell Signaling, Danvers, MA) with Protease Inhibitor (Calbiochem/EMD, Germany), PMSF (Sigma, St Louis MO), HALTS (Thermo Fisher, Rockford, IL) for 30 min on wet ice. Cell lysates are frozen at −80° C. before testing. The lysates are tested in the Human/Mouse/Rat Phospho-RPS6 ELISA (R&D Systems, Inc. Minn, MN). The plate is measured using a microplate reader (SpectraMax M5—Molecular Devices, LLC Sunnyvale, CA) set to 450 nm with a wavelength correction of 540. IC50 determination is performed by fitting the curve of inhibitor percent inhibition versus the log of the inhibitor concentration using the GraphPad Prism 5.0 software.

Sequence of PI3Kγ (p110γ) Recombinant Human Protein (P48736 whole entry): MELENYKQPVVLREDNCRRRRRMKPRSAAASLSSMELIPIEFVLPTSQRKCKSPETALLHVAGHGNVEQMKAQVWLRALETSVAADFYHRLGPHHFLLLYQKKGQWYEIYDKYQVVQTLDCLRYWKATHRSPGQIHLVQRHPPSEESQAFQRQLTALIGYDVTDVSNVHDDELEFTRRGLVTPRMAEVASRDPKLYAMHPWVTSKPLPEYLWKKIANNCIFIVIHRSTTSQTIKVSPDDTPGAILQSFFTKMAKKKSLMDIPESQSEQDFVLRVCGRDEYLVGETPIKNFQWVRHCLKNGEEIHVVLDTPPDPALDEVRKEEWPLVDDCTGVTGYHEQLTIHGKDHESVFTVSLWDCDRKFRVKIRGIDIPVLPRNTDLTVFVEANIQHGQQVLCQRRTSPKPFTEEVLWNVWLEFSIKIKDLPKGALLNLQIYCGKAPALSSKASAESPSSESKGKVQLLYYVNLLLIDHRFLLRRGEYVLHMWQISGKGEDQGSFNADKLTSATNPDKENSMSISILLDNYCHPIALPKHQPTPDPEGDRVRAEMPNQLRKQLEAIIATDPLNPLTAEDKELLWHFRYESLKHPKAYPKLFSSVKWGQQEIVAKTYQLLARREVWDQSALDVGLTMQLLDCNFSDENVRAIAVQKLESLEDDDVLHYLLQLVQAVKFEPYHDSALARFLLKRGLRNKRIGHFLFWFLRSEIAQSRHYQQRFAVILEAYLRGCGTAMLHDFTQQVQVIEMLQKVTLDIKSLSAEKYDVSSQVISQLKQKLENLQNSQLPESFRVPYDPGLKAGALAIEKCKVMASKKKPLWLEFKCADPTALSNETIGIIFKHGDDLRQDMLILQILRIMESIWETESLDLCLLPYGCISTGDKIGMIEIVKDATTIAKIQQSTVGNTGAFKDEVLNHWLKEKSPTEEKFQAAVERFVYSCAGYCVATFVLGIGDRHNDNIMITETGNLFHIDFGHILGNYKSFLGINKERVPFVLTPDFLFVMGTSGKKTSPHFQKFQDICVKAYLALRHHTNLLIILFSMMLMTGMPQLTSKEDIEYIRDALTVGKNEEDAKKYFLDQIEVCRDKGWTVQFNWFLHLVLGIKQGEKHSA

Structure (SMILES)	IC50 [1] [nM]	IC50 [2] [nM]	IC50 ([3]; Homo sapiens) [nM]	IC50 [3] [nM]
Cc1ccc(C(O)(CO)C(F)(F)F)cc1-c1cnc(N)c(-n2cncn2)n1 (single isomer, unassigned) [Example 15, 2-(3-(5-Amino-6-(1H-1,2,4-triazol-1-yl)pyrazin-2-yl)-4-methylphenyl)-3,3,3-trifluoropropane-1,2-diol]	≤ 100	≤ 100	100 to 500	
Cc1ccc(C(O)(CO)C(F)(F)F)cc1-c1cnc(N)c(-n2nccn2)n1 (centres unmarked) [Example 14, 2-(3-(5-Amino-6-(1H-1,2,3-triazol-2-yl)pyrazin-2-yl)-4-methylphenyl)-3,3,3-trifluoropropane-1,2-diol]	≤ 100	≤ 100		< 100
Cc1ccc([C@](O)(CO)C(F)F)cc1-c1cnc(N)c(C(=O)N2CCC[C@@H]2CO)n1 [Example 45, (3-Amino-6-(5-((S)-1,1-difluoro-2,3-dihydroxypropan-2-yl)-2-methylphenyl)pyrazin-2-yl)((R)-2-(hydroxymethyl)pyrrolidin-1-yl)methanone]		500 to 2000		100 to 500
